# In publication PMC2730741 (Bioorganic & medicinal chemistry, 2009):
# Entries after “also recorded” stand apart in the source; their conditions may differ.
# How the values were obtained:
# lethal factor (LF) = lethal factor (LF) (Bacillus anthracis, UniProt P15917); assay: biochemical; assay type: biochemical
# in vitro = settings: microsomes
# [1] = tested on: Bacillus anthracis Sterne spores; set-up: species or system A/J mice; settings: mouse, in vivo
# [2] = tested on: RAW 264.7 macrophages, LF/PA induced cell death; assay: cells; assay type: cell-based, Murine; settings: Mus musculus, RAW264.7, 4 h, read-out: EC50 (macrophage assay)
# [3] = tested on: LF cleavage of MEK1 in HeLa cells; assay type: cell-based, Human
# [4] = microsomes
# lethal factor (LF), sequence (P15917 34-809 limits assumed): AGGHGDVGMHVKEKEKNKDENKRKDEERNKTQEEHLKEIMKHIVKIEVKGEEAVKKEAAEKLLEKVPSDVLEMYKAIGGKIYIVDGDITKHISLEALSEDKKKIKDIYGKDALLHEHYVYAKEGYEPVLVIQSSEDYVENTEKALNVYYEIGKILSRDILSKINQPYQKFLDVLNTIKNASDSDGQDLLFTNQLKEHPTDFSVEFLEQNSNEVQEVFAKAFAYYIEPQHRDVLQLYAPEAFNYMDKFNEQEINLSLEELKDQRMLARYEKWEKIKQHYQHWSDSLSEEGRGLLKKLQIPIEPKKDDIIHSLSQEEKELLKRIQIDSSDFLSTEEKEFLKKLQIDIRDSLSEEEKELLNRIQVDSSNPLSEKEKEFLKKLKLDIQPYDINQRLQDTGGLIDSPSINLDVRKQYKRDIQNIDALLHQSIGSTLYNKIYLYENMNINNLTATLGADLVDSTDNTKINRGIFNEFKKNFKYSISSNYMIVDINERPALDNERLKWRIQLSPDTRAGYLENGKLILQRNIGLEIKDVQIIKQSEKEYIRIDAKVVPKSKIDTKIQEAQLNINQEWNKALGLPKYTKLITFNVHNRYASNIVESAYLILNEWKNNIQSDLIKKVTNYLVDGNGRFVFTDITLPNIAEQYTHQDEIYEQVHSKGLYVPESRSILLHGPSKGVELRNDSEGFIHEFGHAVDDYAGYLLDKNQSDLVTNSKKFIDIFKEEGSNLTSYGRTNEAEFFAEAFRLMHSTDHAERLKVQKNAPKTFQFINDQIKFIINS
Compound,IC50 (lethal factor (LF)),half-life (in vitro),Pampa,also measured
"Nc1sccc1-c1nc2ccccc2s1 [Compound 42, reference compound]",–,–,–,inhibitory activity against LF (in words) (lethal factor (LF)): essentially inactive
"O=S(=O)(Nc1sccc1-c1nc2ccccc2s1)c1cc(OCC(F)(F)F)ccc1OCC(F)(F)F [Compound 56, N-(3-(benzo[d]thiazol-2-yl)thiopen-2-yl)-2,5-bis(2,2,2-trifluoroethoxy)benzenesulfonamide]",39 µM,–,–,–
COc1ccc(-c2ccc(S(=O)(=O)Nc3sccc3-c3nc4ccccc4s3)cc2)cc1 [Compound 70],–,> 2 h,Low,survival of infected mice versus DMSO control [1]: a little more effective in protecting the mice; also recorded: best survival; EC50 [2]: 0.561 µM; protection of HeLa cells against LF cleavage of MEK1 [3]: effective; Metabolic stability Hept. CLint [4]: t1/2= >120min CLint= 3.6
"CNC(=O)[C@H](Cc1c[nH]c2ccccc12)NC(=O)[C@@H](CC(=O)NO)CC(C)C [Inhibitor 1, Ilomastat]",–,–,–,protection of HeLa cells against LF cleavage of MEK1 [3]: effective
"Cc1csc(NS(=O)(=O)c2ccc([N+](=O)[O-])cc2)c1-c1nc2ccccc2s1 [Compound 17, N-(3-(benzo[d]thiazol-2-yl)-4-methylthiophen-2-yl)-4-nitrobenzenesulfonamide]",–,> 2 h,High,Metabolic stability Hept. CLint [4]: t1/2= >120min CLint= 0.6
COc1ccc(-c2ccc(S(=O)(=O)Nc3sc4c(c3-c3nc5ccccc5s3)CCCC4)cc2)cc1 [Compound 105],> 50 µM,–,–,–
O=S(=O)(Nc1sc2c(c1-c1nc3ccccc3s1)CCCC2)c1ccc(-c2ccc(Cl)cc2)cc1 [Compound 106],> 50 µM,–,–,–
"Cc1ccc(S(=O)(=O)Nc2sccc2-c2nc3ccccc3s2)cc1Cl [Compound 55, N-(3-(benzo[d]thiazol-2-yl)thiophen-2-yl)-3-chloro-4-methylbenzenesulfonamide]",–,> 2 h,High,survival of infected mice versus DMSO control [1]: slight improvement in comparison to the control
"CSc1nccc(-c2ccc(S(=O)(=O)Nc3sccc3-c3nc4ccccc4s3)s2)n1 [Compound 99, N-(3-(benzo[d]thiazol-2-yl)thiophen-2-yl)-5-(2-(methylthio)pyrimidin-4-yl)thiophene-2-sulfonamide]",18 µM,–,–,–
O=S(=O)(Nc1sccc1-c1nc2ccccc2s1)c1ccc(-c2ccc(Cl)cc2)cc1 [Compound 71],–,> 2 h,Low,–
"O=S(=O)(Nc1sccc1-c1nc2ccccc2s1)c1ccc2ncsc2c1 [Compound 92, N-(3-(benzo[d]thiazol-2-yl)thiophen-2-yl)benzo[d]thiazole-6-sulfonamide]",–,> 2 h,High,Metabolic stability Hept. CLint [4]: t1/2= >120min CLint= 3.9
Cc1cc(S(=O)(=O)N[C@H](C(=O)NO)C2CCOCC2)ccc1F [Compound 7],–,–,–,protection of HeLa cells against LF cleavage of MEK1 [3]: effective
